Measured values reported in patent US4182878A, “1-Phenyl-1H-pyrazolo[3,4-d]pyrimidine-4-carbonitrile and a method for its preparation” (The Lion Dentrifice Co., Ltd., priority 1977, dated 1980).

Legend:
Ehrlich's tumor cells = assay: Carcinostatic activity in ddY mice subcutaneously inoculated with Ehrlich's tumor cells; assay type: in vivo; details: for Weight of tumor tissues in the sample group (S) / Ratio of S/C: 14 days after inoculation; for Weight of tumor tissues in the sample group (S) / Toxicity, ratio of died mice / Ratio of S/C: 1 mg daily intraabdominal injection; for Weight of tumor tissues in the sample group (S) / Toxicity, ratio of died mice: dosage period 10 days (I, IV) or 7 days (XI, VI, X); for Evaluation: based on the ratios of S/C in percentages; for effectiveness in preventing the multiplication of cancer cells: conclusion in words from the table; for Toxicity, ratio of died mice: number of mice died in the group during 14 days after transplantation; for Ratio of S/C: tumor weight sample/control, control 4.44 ± 1.02 g (I, IV), 1.36 ± 0.15 g (XI, VI), 1.52 ± 0.27 g (X)
Procedure: In addition to the foregoing examples of preparation processes, Compounds I, IV, VI, X and XI were evaluated with respect to their carcinostatic activities and acute toxicities by animal tests as follows.
Each of mice (ddY) having a body weight of about 25 g was subcutaneously innoculated with 3×10^6 of Ehrlich's tumor cells, and the thus inoculated mice were divided into 5 "sample" groups and 3 "control" groups, each group consisting of five or four mice. The thus treated mice belonging to the control groups were observed over a period of 14 days. On the other hand, each mouse belonging to the sample groups was given a 1 mg dose of Compounds I, IV, VI, XI or X by injection into the abdominal coelom every day during the period beginning after 24 hours from the innoculation of the tumor cells, and as indicated in the table below.
At the end of the 14-day period following the above-mentioned innoculation of the tumor cells, the tumor tissues of each mouse were taken out and weighed, so that comparison could be made between the weights of the tumor tissues taken from the sample groups and the control groups. Further in the table, "Toxicity" is expressed by the number of mice died in the group during the 14-day period following the transplantation of the cancer cells and "Evaluation" is based on the ratios of S/C in percentages and expressed by "++" when the percentage is 0-25%, "+" when the percentage is 26-50%, and "±" when the percentage is 51-75%.

[1] = Acute toxicity, LD50 by oral administration; details: in vivo, mouse
[2] = Stability of the compound; assay type: physicochemical

SMILES	Weight of tumor tissues in the sample group (S) (Ehrlich's tumor cells) [g]	Evaluation (Ehrlich's tumor cells)	effectiveness in preventing the multiplication of cancer cells (Ehrlich's tumor cells)	Toxicity, ratio of died mice (Ehrlich's tumor cells)	Ratio of S/C (Ehrlich's tumor cells) [%]	LD50 [1] [mg/kg]	stability [2]
N#Cc1ncnc2c1cnn2-c1ccccc1 [Compound I, 1-phenyl-1H-pyrazolo[3,4-d]pyrimidine-4-carbonitrile]	0.43 ± 0.40	++ (the percentage is 0-25%)	very effective in preventing the multiplication of cancer cells	1/5	9.7	100	stable
NC(=S)c1ncnc2c1cnn2-c1ccccc1 [Compound XI, 1-phenyl-1H-pyrazolo[3,4-d]pyrimidine-4-thiocarboxamide]	0.63 ± 0.08	+ (the percentage is 26-50%)	effective in preventing the multiplication of cancer cells	0/4	46.3		
O=C(O)c1ncnc2c1cnn2-c1ccccc1 [Compound X, 1-phenyl-1H-pyrazolo[3,4-d]pyrimidine-4-carboxylic acid]	1.14 ± 0.27	± (the percentage is 51-75%)	effective in preventing the multiplication of cancer cells	0/4	75.0		
NC(=NO)c1ncnc2c1cnn2-c1ccccc1 [Compound VI, 1-phenyl-1H-pyrazolo[3,4-d]pyrimidine-4-carboxamidoxime]	0.43 ± 0.15	+ (the percentage is 26-50%)	effective in preventing the multiplication of cancer cells	0/4	31.6		
NC(=O)c1ncnc2c1cnn2-c1ccccc1 [Compound IV, 1-phenyl-1H-pyrazolo[3,4-d]pyrimidine-4-carboxamide]	3.05 ± 1.40	± (the percentage is 51-75%)	effective in preventing the multiplication of cancer cells	0/5	68.7		
